PubChem BioAssay AID2060884 (Molecular Pharmacology Branch, DTP, NCI, 2025)

System: NCI-H929 complex spheroids, viability % test/control
Test: Anticancer human tumor NCI-H929 cell line growth inhibition [RAS];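 further: compound exposure lasted seven days before viability was read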;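 on viability, T/C: 100% = DMSO vehicle control viability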
Conditions: for IC50: curve of first compound; for viability, T/C: stronger effect = lower value; active means viability on the fitted dose curve at most 10% of control; inactive means the rest
In short: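 Agents were tested in combination matrices in half-log decrements from a top concentration at or near clinical Cmax (10 microM if undetermined). Targets were multi-cell spheroids of tumour lines plus HUVEC and MSC stromal cells.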

C=CC(=O)Nc1cc(Nc2nccc(-c3cn(C)c4ccccc34)n2)c(OC)cc1N(C)CCN(C)C + C=CC(=O)N1CCN(c2nc(OCC3CCCN3C)nc3c(F)c(-c4nc(N)cc(C)c4C(F)(F)F)c(Cl)cc23)C(C)C1
inactive: viability, T/C (second compound 0.00316 µM, first compound 0.00316 µM) 93.4% | viability, T/C (second compound 0.00316 µM, first compound 0.01 µM) 97.7% | viability, T/C (second compound 0.00316 µM, first compound 0.0316 µM) 102% | viability, T/C (second compound 0.00316 µM, first compound 0.1 µM) 95.2% | viability, T/C (second compound 0.00316 µM, first compound 0.316 µM) 100% | viability, T/C (second compound 0.00316 µM, first compound 1 µM) 103% | viability, T/C (second compound 0.01 µM, first compound 0.00316 µM) 101% | viability, T/C (second compound 0.01 µM, first compound 0.01 µM) 100% | viability, T/C (second compound 0.01 µM, first compound 0.0316 µM) 101% | viability, T/C (second compound 0.01 µM, first compound 0.1 µM) 101% | viability, T/C (second compound 0.01 µM, first compound 0.316 µM) 99.4% | viability, T/C (second compound 0.01 µM, first compound 1 µM) 107% | viability, T/C (second compound 0.0316 µM, first compound 0.00316 µM) 95.5% | viability, T/C (second compound 0.0316 µM, first compound 0.01 µM) 99.8% | viability, T/C (second compound 0.0316 µM, first compound 0.0316 µM) 104% | viability, T/C (second compound 0.0316 µM, first compound 0.1 µM) 99.3% | viability, T/C (second compound 0.0316 µM, first compound 0.316 µM) 103% | viability, T/C (second compound 0.0316 µM, first compound 1 µM) 104% | viability, T/C (second compound 0.1 µM, first compound 0.00316 µM) 98.1% | viability, T/C (second compound 0.1 µM, first compound 0.01 µM) 101% | viability, T/C (second compound 0.1 µM, first compound 0.0316 µM) 108% | viability, T/C (second compound 0.1 µM, first compound 0.1 µM) 99.1% | viability, T/C (second compound 0.1 µM, first compound 0.316 µM) 101% | viability, T/C (second compound 0.1 µM, first compound 1 µM) 107% | viability, T/C (second compound 0.316 µM, first compound 0.00316 µM) 101% | viability, T/C (second compound 0.316 µM, first compound 0.01 µM) 104% | viability, T/C (second compound 0.316 µM, first compound 0.0316 µM) 101% | viability, T/C (second compound 0.316 µM, first compound 0.1 µM) 99.5% | viability, T/C (second compound 0.316 µM, first compound 0.316 µM) 104% | viability, T/C (second compound 0.316 µM, first compound 1 µM) 105% | viability, T/C (second compound 1 µM, first compound 0.00316 µM) 106% | viability, T/C (second compound 1 µM, first compound 0.01 µM) 106% | viability, T/C (second compound 1 µM, first compound 0.0316 µM) 107% | viability, T/C (second compound 1 µM, first compound 0.1 µM) 105% | viability, T/C (second compound 1 µM, first compound 0.316 µM) 107% | viability, T/C (second compound 1 µM, first compound 1 µM) 106%
> 1000 nM: IC50 (second compound 0.00316 µM) | IC50 (second compound 0.01 µM) | IC50 (second compound 0.0316 µM) | IC50 (second compound 0.1 µM) | IC50 (second compound 0.316 µM) | IC50 (second compound 1 µM)

CCc1c2c(nc3ccc(O)cc13)-c1cc3c(c(=O)n1C2)COC(=O)[C@]3(O)CC + CCn1c(-c2cccnc2C(C)OC)c2c3cc(ccc31)N1CCOC(CC(NC(=O)C(C(C)C)N(C)C(=O)C3(F)CCN(C(=O)C#CC(C)(C)N(C)C)CC3)C(=O)N3CCCC(N3)C(=O)OCC(C)(C)C2)C1
active: viability, T/C (second compound 0.000949 µM, first compound 0.003 µM) 2.65% | viability, T/C (second compound 0.000949 µM, first compound 0.00949 µM) 1.03% | viability, T/C (second compound 0.000949 µM, first compound 0.03 µM) 1.2% | viability, T/C (second compound 0.000949 µM, first compound 0.0949 µM) 1.15% | viability, T/C (second compound 0.000949 µM, first compound 0.3 µM) 0.54% | viability, T/C (second compound 0.003 µM, first compound 0.003 µM) 3.29% | viability, T/C (second compound 0.003 µM, first compound 0.00949 µM) 1.02% | viability, T/C (second compound 0.003 µM, first compound 0.03 µM) 1.1% | viability, T/C (second compound 0.003 µM, first compound 0.0949 µM) 1.07% | viability, T/C (second compound 0.003 µM, first compound 0.3 µM) 0.54% | viability, T/C (second compound 0.00949 µM, first compound 0.003 µM) 2.82% | viability, T/C (second compound 0.00949 µM, first compound 0.00949 µM) 0.87% | viability, T/C (second compound 0.00949 µM, first compound 0.03 µM) 1.06% | viability, T/C (second compound 0.00949 µM, first compound 0.0949 µM) 1.05% | viability, T/C (second compound 0.00949 µM, first compound 0.3 µM) 0.47% | viability, T/C (second compound 0.03 µM, first compound 0.003 µM) 1.48% | viability, T/C (second compound 0.03 µM, first compound 0.00949 µM) 0.74% | viability, T/C (second compound 0.03 µM, first compound 0.03 µM) 0.96% | viability, T/C (second compound 0.03 µM, first compound 0.0949 µM) 0.84% | viability, T/C (second compound 0.03 µM, first compound 0.3 µM) 0.42% | viability, T/C (second compound 0.0949 µM, first compound 0.003 µM) 1.38% | viability, T/C (second compound 0.0949 µM, first compound 0.00949 µM) 0.98% | viability, T/C (second compound 0.0949 µM, first compound 0.03 µM) 0.71% | viability, T/C (second compound 0.0949 µM, first compound 0.0949 µM) 0.87% | viability, T/C (second compound 0.0949 µM, first compound 0.3 µM) 0.47% | viability, T/C (second compound 0.3 µM, first compound 0.003 µM) 1.54% | viability, T/C (second compound 0.3 µM, first compound 0.00949 µM) 0.75% | viability, T/C (second compound 0.3 µM, first compound 0.03 µM) 0.83% | viability, T/C (second compound 0.3 µM, first compound 0.0949 µM) 0.84% | viability, T/C (second compound 0.3 µM, first compound 0.3 µM) 0.44%
1.45 nM: IC50 (second compound 0.003 µM)
1.34 nM: IC50 (second compound 0.00949 µM)
1.4 nM: IC50 (second compound 0.03 µM)
1.38 nM: IC50 (second compound 0.000949 µM)
< 0.949 nM: IC50 (second compound 0.3 µM)
1.22 nM: IC50 (second compound 0.0949 µM)
inactive: viability, T/C (second compound 0.000949 µM, first compound 0.000949 µM) 72.7% | viability, T/C (second compound 0.003 µM, first compound 0.000949 µM) 77% | viability, T/C (second compound 0.00949 µM, first compound 0.000949 µM) 70.4% | viability, T/C (second compound 0.03 µM, first compound 0.000949 µM) 74.8% | viability, T/C (second compound 0.0949 µM, first compound 0.000949 µM) 63.8% | viability, T/C (second compound 0.3 µM, first compound 0.000949 µM) 48.2%
